Like-named read-outs stand apart in the source and are kept apart here.

One data set addresses T1, hCCR3 (Homo sapiens, UniProt P51677).
T1 construct: expressed in transfected cells; host or cells: K562 and RBL2H3 cells
T1 sequence (P51677 1-355): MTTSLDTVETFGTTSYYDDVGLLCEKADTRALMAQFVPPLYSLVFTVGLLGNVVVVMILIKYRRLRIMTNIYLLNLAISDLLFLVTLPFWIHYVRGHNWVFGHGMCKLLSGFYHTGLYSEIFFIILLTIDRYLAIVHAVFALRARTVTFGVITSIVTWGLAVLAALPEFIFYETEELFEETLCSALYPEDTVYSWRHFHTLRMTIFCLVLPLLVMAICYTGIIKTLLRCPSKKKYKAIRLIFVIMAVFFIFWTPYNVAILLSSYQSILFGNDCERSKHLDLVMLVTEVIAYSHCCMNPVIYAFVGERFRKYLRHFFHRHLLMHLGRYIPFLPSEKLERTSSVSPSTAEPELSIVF
As to the kind of experiment: Ca2+ mobilization in hCCR3-RBL and hCCR3 K562 cells (test B). The data set is classed as cell-based. The protocol: B.) Investigation of Ca^2+ Mobilization in hCCR3-RBL and hCCR3 K562 Cells
HCCR3-K562 and hCCE3-RBL2H3 cells in 40,000 cells/well density (number of cells in one well of the microplate) are cultured for 24 hours. The cells are washed and loaded with calcium indicator dye (Calcium Plus assay Kit, Molecular Devices). The cells are incubated in the presence of the dye for 60 minutes while loading takes place. The dye is a fluorescent calcium indicator, which sensitively indicates the intracellular calcium concentration. The intracellular calcium concentration is in direct ratio with the fluorescent signal of the sample. The experiments are performed in a BMG NOVOSTAR apparatus, at […].
The selective agonists used in the experiments are:
In the experiments an agonist concentration is used which causes a 75% calcium signal compared to the maximum attainable signal.
Antagonists are added 15 minutes before the agonist treatment.
The change of the fluorescent signal is monitored for 30 seconds, during that period the process takes place.
The intensity of the maximum calcium signal following the addition of the agonist is compared with the calcium signal obtained after the addition of the same agonist, but in the presence of the inhibitor.
The activity of the compounds is characterized with the IC50 values.
(In general: A change in cytosolic calcium serves as a functional read-out for many receptors and channels.)

Setting [1] is: test B, inhibition of agonist-induced calcium signal in hCCR3-K562 / hCCR3-RBL2H3 cells, antagonist added 15 minutes before agonist, read-out: IC50.

A word on the melting point: it is the temperature, or range, at which the solid turns liquid. The molecule `O=C(CCc1nc2nc(N3CCCC3)ccc2s1)NCCC[N+]1([O-])CCCC1c1ccc(Cl)c(Cl)c1` (centres unmarked) came in with a melting point of 185 to 188 °C.

As a reminder, the IC50 is the concentration that gives 50% inhibition. On to `CNc1ccc2nc(CCC(=O)NCCCN3CCCC3c3ccc(Cl)c(Cl)c3)sc2n1` (centres unmarked) [Example 2, N-{3-[2-(3,4-dichlorophenyl)pyrrolidin-1-yl]propyl}-3-(5-(methylamino)[1,3]thiazolo[5,4-b]pyridin-2-yl)propionamide], for which the melting point fell in the range of 119 to 121 °C. For the same molecule, inhibition against hCCR3 was half-maximal at 18 nM (IC50).

For the molecule “1-Amino-2-(3,4-dichlorophenyl)-1-(3-{[3-(5-pyrrolidin-1-yl[1,3]thiazolo[4,5-b]pyridin-2-yl)propanoyl]amino}propyl)pyrrolidinium tosylate [Example 14]”, the IC50 on hCCR3 (setting [1]) is 1 nM.

For the molecule `Cc1ccc2nc(CCC(=O)NCCCN3CCCC3c3ccc(Cl)c(Cl)c3)sc2n1` (centres unmarked), the melting point was in the range of 125 to 130 °C.

The molecule `O=C(CCc1nc2ccc(N3CCCCC3)nc2s1)NCCCN1CCCC1c1ccc(Cl)c(Cl)c1` (centres unmarked) [Example 4, N-{3-[2-(3,4-dichlorophenyl)pyrrolidin-1-yl]propyl}-3-(5-piperidin-1-yl[1,3]thiazolo[5,4-b]pyridin-2-yl)propionamide] returned a melting point of 93 to 95 °C. Also, the half-maximal inhibitory concentration (IC50) on hCCR3 was 3.4 nM.

Molecule `Cc1ccc2nc(CCC(=O)NCCCN3CCCC3c3ccc(Cl)c(Cl)c3)sc2c1` (centres unmarked) came in with a melting point of 76 to 79 °C.

As to “N-{3-[2-(3,4-dichlorophenyl)-1-oxidopyrrolidin-1-yl]propyl}-3-(5-morpholin-4-yl[1,3]thiazolo[4,5-b]pyridin-2-yl)propionamide [Example 21]”, the IC50 on hCCR3 (setting [1]) is 82.5 nM.

Consider `CCNC(=O)N[N+]1(CCCNC(=O)CCc2nc3nc(N4CC(C)OC(C)C4)ccc3s2)CCCC1c1ccc(Cl)c(Cl)c1.Cl` (centres unmarked), for which the melting point was 115 to 118 °C.

As to “1-(Acetylamino)-2-(3,4-dichlorophenyl)-1-(3-{[3-(5-piperidin-1-yl[1,3]thiazolo[4,5-b]pyridin-2-yl)propanoyl]amino}propyl)pyrrolidinium hydrochloride [Example 23]”, on hCCR3 (setting [1]), the IC50 turned out to be 13 nM.

On to `CC1CN(c2ccc3nc(CCC(=O)NCCCN4CCCC4c4ccc(Cl)c(Cl)c4)sc3n2)CC(C)O1` (centres unmarked) [Example 11, N-{3-[2-(3,4-dichlorophenyl)pyrrolidin-1-yl]propyl}-3-(5-(2,6-dimethylmorpholin-4-yl)[1,3]thiazolo[5,4-b]pyridin-2-yl)propionamide], for which it took 1.6 nM to reach half-maximal inhibition on hCCR3 (IC50).

For the molecule `O=C(CCc1nc2ccc(N3CCOCC3)nc2s1)NCCCN1CCCC1c1ccc(Cl)c(Cl)c1` (centres unmarked) [Example 5, N-{3-[2-(3,4-dichlorophenyl)pyrrolidin-1-yl]propyl}-3-(5-morpholin-4-yl[1,3]thiazolo[5,4-b]pyridin-2-yl)propionamide], the melting point fell in the range of 111 to 112 °C. The molecule further returned a half-maximal inhibitory concentration (IC50) on hCCR3 of 0.9 nM.

In the case of `O=C(CCc1nc2ncc(N3CCCCC3)nc2s1)NCCCN1CCCC1c1ccc(Cl)c(Cl)c1` (centres unmarked) [Example 9], the melting point stood at 105 °C. For the same molecule, at hCCR3, the 50% inhibitory concentration (IC50) turned out to be 3.9 nM.

The molecule `O=C(CCc1nc2ccc(N3CCCC3)nc2s1)NCCCN1CCCC1c1ccc(Cl)c(Cl)c1` (centres unmarked) [Example 3, N-{3-[2-(3,4-dichlorophenyl)pyrrolidin-1-yl]propyl}-3-(5-pyrrolidin-1-yl[1,3]thiazolo[5,4-b]pyridin-2-yl)propionamide] had a melting point of 137 to 138 °C. Moreover, on hCCR3, half-maximal inhibition (IC50) required 5 nM.

Turning to `O=C(CCc1nc2ccc(N3CCCCC3)nc2s1)NCCC[N+]1([O-])CCCC1c1ccc(Cl)c(Cl)c1` (centres unmarked) [Example 20], the melting point fell in the range of 185 to 187 °C. On hCCR3, the concentration for half-maximal inhibition (IC50) was 13 nM.

These data come from US8420636B2, “Pyrrolidinyl-alkyl-amide derivatives, their preparation, and their therapeutic application as CCR3 receptor ligands” (Sanofi, priority 2008, dated 2013).
